Results published in article PMC4838840 (2016).

Key:
[1] = tested on: ADAM10 (RNA, G4) GGGGGACGGGUAGGGGCGGGAGGUAGGGG; test: fluorescence titration; conditions: 40 mM K+; 20 mM Tris HCl pH 7.0, 25 °C, 2 μM ThT, 1:1 fit
[2] = tested on: BCL-2 (RNA) (RNA, G4) AGGGGGCCGUGGGGUGGGAGCUGGGG; test: fluorescence titration; conditions: 40 mM K+; 20 mM Tris HCl pH 7.0, 25 °C, 2 μM ThT, 1:1 fit
[3] = tested on: ERSI (RNA, G4) GGGUAGGGGCAAAGGGGCUGGGG; test: fluorescence titration; conditions: 40 mM K+; 20 mM Tris HCl pH 7.0, 25 °C, 2 μM ThT, 1:1 fit
[4] = tested on: TRF2 (RNA, G4) CGGGAGGGCGGGGAGGGC; test: fluorescence titration; conditions: 40 mM K+; 20 mM Tris HCl pH 7.0, 25 °C, 2 μM ThT, 1:1 fit
[5] = tested on: ZIC1 (RNA, G4) GGGUGGGGGGGGCGGGGGAGGCCGGGG; test: fluorescence titration; conditions: 40 mM K+; 20 mM Tris HCl pH 7.0, 25 °C, 2 μM ThT, 1:1 fit
[6] = tested on: VEGF (RNA, G4) GGAGGAGGGGGAGGAGGA; test: fluorescence titration; conditions: 40 mM K+; 20 mM Tris HCl pH 7.0, 25 °C, 2 μM ThT, 1:1 fit
[7] = tested on: C9orf72 (RNA) (RNA, G4) GGGGCCGGGGCCGGGGCCGGGGCC; test: fluorescence titration; conditions: 40 mM K+; 20 mM Tris HCl pH 7.0, 25 °C, 2 μM ThT, 1:1 fit
[8] = tested on: ssAf20 (RNA) (RNA, single strand) CAAUUGUAUAUAUUCG; test: fluorescence titration; conditions: 40 mM K+; 20 mM Tris HCl pH 7.0, 25 °C, 2 μM ThT, 1:1 fit
[9] = tested on: ssAf22 (RNA, single strand) UGAGCUUAAUUGUAUAUAUUCG; test: fluorescence titration; conditions: 40 mM K+; 20 mM Tris HCl pH 7.0, 25 °C, 2 μM ThT, 1:1 fit
[10] = tested on: HP18 (RNA) (RNA, hairpin) CAGUACAGAUCUGUACUG; test: fluorescence titration; conditions: 40 mM K+; 20 mM Tris HCl pH 7.0, 25 °C, 2 μM ThT, 1:1 fit
[11] = tested on: dsAf16 (RNA) (RNA, duplex) CUUAAUUGUAUAUAUUCGCGAAUAUAUACAAUUAAG; test: fluorescence titration; conditions: 40 mM K+; 20 mM Tris HCl pH 7.0, 25 °C, 2 μM ThT, 1:1 fit
[12] = tested on: Tel22 (RNA) (RNA, G4) AGGGUUAGGGUUAGGGUUAGGG; test: fluorescence enhancement; conditions: 40 mM K+; 20 mM Tris HCl pH 7.0, 2 μM ThT, 4 μM RNA; F/F0 440-fold
[13] = tested on: Tel22 (DNA) (DNA, G4) AGGGTTAGGGTTAGGGTTAGGG; test: fluorescence enhancement; conditions: 40 mM K+; 20 mM Tris HCl pH 7.0; F/F0 1339-fold
[14] = tested on: BCL-2 (DNA) (DNA, G4) AGGGGGCCGTGGGGTGGGAGCTGGGG; test: fluorescence enhancement; conditions: 40 mM K+; 20 mM Tris HCl pH 7.0; F/F0 458-fold
[15] = tested on: C9orf72 (DNA) (DNA, G4) GGGGCCGGGGCCGGGGCCGGGGCC; test: fluorescence enhancement; conditions: 40 mM K+; 20 mM Tris HCl pH 7.0; F/F0 252-fold
[16] = tested on: ssAf20 (DNA) (DNA, single strand) CAATTGTATATATTCG; test: fluorescence enhancement; conditions: 40 mM K+; 20 mM Tris HCl pH 7.0; F/F0 59-fold
[17] = tested on: HP18 (DNA) (DNA, hairpin) CAGTACAGATCTGTACTG; test: fluorescence enhancement; conditions: 40 mM K+; 20 mM Tris HCl pH 7.0; F/F0 36-fold
[18] = tested on: dsAf16 (DNA) (DNA, duplex) CTTAATTGTATATATTCGCGAATATATACAATTAAG; test: fluorescence enhancement; conditions: 40 mM K+; 20 mM Tris HCl pH 7.0; F/F0 65-fold
[19] = tested on: Spinach (RNA, aptamer) GCAGCCGGCUUGUUGAGUAGAGUGUGAGCUCCGUAACUGGUCGCGUC/GACGCGACCGAAUGAAAUGGUGAAGGACGGGUCCAGCCGGCUGC; test: fluorescence enhancement; conditions: 40 mM K+; 20 mM Tris HCl pH 7.0, 2 μM ThT, 4 μM RNA; F/F0 487-fold
[20] = tested on: Bulges-TB1 (RNA, G4) UUGUGGUGGGUGGGUGGGU; test: fluorescence enhancement; conditions: 40 mM K+; 20 mM Tris HCl pH 7.0, 2 μM ThT, 4 μM RNA; F/F0 196-fold
[21] = tested on: tRNA-Ala fragment (RNA, G4) GGGGGUGUAGCUCAGUGGUAGAGCGCGUGC; test: fluorescence enhancement; conditions: 40 mM K+; 20 mM Tris HCl pH 7.0, 2 μM ThT, 4 μM RNA; F/F0 88-fold
[22] = tested on: tRNA-Cys fragment (RNA, G4) GGGGGUAUAGCUCAGUGGUAGAGCAUUUGA; test: fluorescence enhancement; conditions: 40 mM K+; 20 mM Tris HCl pH 7.0, 2 μM ThT, 4 μM RNA; F/F0 57-fold

Cc1ccc2c(c1)sc(-c1ccc(N(C)C)cc1)[n+]2C
K [1]: (2.60 ± 0.12) × 10^5 M^-1 | K [2]: (2.93 ± 0.27) × 10^5 M^-1 | K [3]: (2.03 ± 0.12) × 10^5 M^-1 | K [4]: (0.62 ± 0.61) × 10^5 M^-1 | K [5]: (0.56 ± 0.22) × 10^5 M^-1 | K [6]: (1.24 ± 0.15) × 10^5 M^-1 | K [7]: (1.92 ± 0.05) × 10^5 M^-1 | K [8]: (9.37 ± 1.28) × 10^4 M^-1 | K [9]: (5.53 ± 1.59) × 10^4 M^-1 | K [10]: (5.62 ± 1.94) × 10^4 M^-1 | K [11]: (1.43 ± 1.01) × 10^5 M^-1 | binding [12]: yes | binding [13]: yes | binding [14]: yes | binding [15]: yes | binding [16]: yes | binding [17]: yes | binding [18]: yes | binding [19]: yes | binding [20]: yes | binding [21]: yes | binding [22]: yes
